Values joined by “and” are separate entries in the source; they are usually repeats but may differ in a detail not shown here. Identical values can stand only once.
What was measured:
COX-2 = target: T1, COX-2 (Ovis aries, UniProt P79208); assay: Colorimetric COX inhibitor screening assay, COX-2; type: biochemical, ovine
T1 construct: purchased Cayman Chemical Company
T1 sequence (P79208 17-603): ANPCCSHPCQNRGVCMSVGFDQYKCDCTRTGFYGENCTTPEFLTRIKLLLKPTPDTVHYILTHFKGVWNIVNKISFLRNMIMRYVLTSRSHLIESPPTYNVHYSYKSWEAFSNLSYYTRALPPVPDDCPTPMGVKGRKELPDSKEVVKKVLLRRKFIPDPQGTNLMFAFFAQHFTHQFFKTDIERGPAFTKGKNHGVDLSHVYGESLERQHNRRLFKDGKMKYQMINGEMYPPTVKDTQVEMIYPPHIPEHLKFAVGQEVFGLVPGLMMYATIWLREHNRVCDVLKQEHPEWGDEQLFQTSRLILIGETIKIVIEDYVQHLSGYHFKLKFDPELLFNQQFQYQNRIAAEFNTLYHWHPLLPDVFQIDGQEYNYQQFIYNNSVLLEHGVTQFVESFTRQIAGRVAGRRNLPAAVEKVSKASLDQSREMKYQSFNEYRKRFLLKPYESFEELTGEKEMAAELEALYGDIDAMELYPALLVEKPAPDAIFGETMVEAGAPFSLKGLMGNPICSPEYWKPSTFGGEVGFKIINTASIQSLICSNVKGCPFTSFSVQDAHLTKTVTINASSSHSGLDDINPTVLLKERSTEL
Protocol: An ovine COX inhibitor screening assay (Cayman Chemical Company, Ann Arbor, Mich.) was used to measure inhibition of purified COX-1 and COX-2. This assay measures the peroxidase component of cyclooxygenases colorimetrically by monitoring the appearance of oxidized N,N,N′,N′-tetramethyl-p-phenylenediamine (TMPD) at 590 nm. Tablets of Vioxx (rofecoxib; Merck & Co., Inc., Whitehouse Station, N.J.) were ground and dissolved in methanol (1 mg/mL) to use as a positive control. AL-1, leukomisin, and austricin were also dissolved in methanol at 1 mg/mL. The assay was performed following manufacturer instructions. Vioxx, vehicle (100% initial activity), or treatments were added to a 96-well plate along with 180 μL assay mixture provided by the manufacturer containing 150 μL assay buffer, 10 μL heme, and 10 μL enzyme (COX-1 or COX-2). A background correction row received no enzyme and 10 μL additional assay buffer. After 5 min incubation at room temp, 20 μL of a colorimetric substrate solution containing TMPD and 20 μL arachadonic acid diluted in assay buffer were added to the plate. The plate was incubated for 5 min and the absorbance was read at 590 nm using a microplate reader (Molecular Devices, Sunnyvale, Calif.). To calculate percent inhibition, average absorbance was calculated for each sample (n=3). The background blank well absorbance was subtracted from each sample.
[(100% Initial activity-Blank)−(Treatment-Blank)/(100% Initial activity-Blank)]*100

[1] = test system: carrageenan-induced rat paw edema; assay: Carrageenan-induced rat paw edema; type: in vivo, Wistar rats; conditions: 200 mg/kg oral gavage, n = 5
Protocol: Groups of five adult male and female Wistar rats with body weights from 136 to 170 g were used for this study. Rats were housed five animals per cage in a room kept at 24-26° C. and fed ad libitum. Before the experiment began, rat paw sizes were recorded by measuring paw volume three times on each animal using a plethysmometer (Ugo Basile, Comerio VA, Italy). The values were averaged to give a baseline paw size value. To start the experiment, animals were given a subcutaneous injection of 1% carrageenan (100 μl; Sigma, St. Louis, Mo.) in the area of the back paw to induce an acute inflammatory reaction (paw edema). One hour after carrageenan injection, rats were orally gavaged with AL-1, aspirin, or vehicle control (5% ethanol). Paw size was measured at three hours and five hours after injection. The increase in paw edema at each time point was determined by comparison with paw volume measured pre-injection. Inhibition of edema was calculated by comparison with vehicle control at the same time point.

[2] = test system: cotton pellet infiltrate and granuloma in rats; assay: Cotton granuloma test; type: in vivo; conditions: 200 mg/kg oral
Protocol: Free access to standard rat chow and water was provided throughout the test. Three sterile cotton pellets (10 mg) were implanted hypodermically into the groin and abdominal area of rats under Nembutal (Sigma, St. Louis, Mo.) narcosis (40 mg/kg intraperitoneally). AL-1, aspirin (Sigma, St. Louis, Mo.), and vehicle control (5% ethanol) were administered by oral gavage one day before implantation, the day of implantation (1 hour before operation), and subsequently for six days after the surgery, once per day. On the seventh day after surgery, rats were euthanized by means of a large dose of Nembutal (70 mg/kg). Cotton pellets were removed and fresh weights were recorded. The cotton pellets were then were placed into an oven (60° C.) for 24 hours and weighed again.

[3] = test system: nitric oxide (NO) production from RAW macrophages; assay: Griess assay for NO production by LPS-stimulated RAW macrophages; type: cell-based, murine; conditions: at 10 μM; positive control

CS(=O)(=O)c1ccc(C2=C(c3ccccc3)C(=O)OC2)cc1 [Vioxx, rofecoxib]
IC50 (COX-2): 40 µM

CC(=O)Oc1ccccc1C(=O)O [aspirin]
inhibition of paw edema vs vehicle control ([1]; 3 h after carrageenan): 53% and 53 ± 1 % | inhibition of paw edema vs vehicle control ([1]; 5 h after carrageenan): 56% and 56 ± 1 % | reduction of granuloma [2]: 44% | reduction of infiltrate [2]: 34% | granuloma (dry weight of pellet) ([2]; once per day, vehicle control 38 ± 7 mg): 21 ± 3 mg | infiltrate (wet weight of pellet) ([2]; once per day, vehicle control 139 ± 10 mg): 92 ± 12 mg | NO production, % of control [3]: 69 % of control

Reference: US20080145465A1, “Sesquiterpene lactone extract from artemisia leucodes for reducing inflammation and down-regulating pro-inflammatory gene expression” (priority 2006, published 2008)
